Some test systems named below: SN12C renal; SR leukemia; SF-268 CNS; UO-31 renal; T-47D breast; K-562 leukemia; NCI-H23 lung; MDA-MB-231 breast; SF-295 CNS; RPMI-8226 leukemia; A498 renal; HCT-116 colon; MOLT-4 leukemia; EKVX NSCLC; UACC-62 melanoma; NCI-H460 lung; U251 CNS.
What all share (assay): NCI-60 cell line screen, 48 h

Here are results for eight compounds from PubChem BioAssay (NCI).

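Following 48 hours of exposure in 96-well plates, responses at five concentrations were used to interpolate endpoints linearly. Definition used: TGI = concentration required for complete inhibition of growth.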 Where a SMILES comes first, the peptide text is derived from it. The star is where a group is joined. Boc = CC(C)(C)OC(=O)*

As for `CC1(c2ccc(F)cc2)CC(c2ccc(F)cc2)=C(C#N)C(=C(C#N)C#N)N1` (stereo not given), the TGI in the test on SN12C renal was found to be 34.5 µM; in the test on SR leukemia, 42.2 µM; with SF-268 CNS it was 37 µM; in the test on UO-31 renal, 32 µM; with T-47D breast it was 31.7 µM; in the test on K-562 leukemia, 38.1 µM. The TGI with NCI-H23 lung is 36.5 µM; in the test on MDA-MB-231 breast it was 43.9 µM; in the test on SF-295 CNS, 37.1 µM; with RPMI-8226 leukemia, above 100 µM; in the test with A498 renal, 35.8 µM; in the test on HCT-116 colon, 30.5 µM. In addition, the TGI in the test on MOLT-4 leukemia worked out at 34.8 µM; with EKVX NSCLC, 31.5 µM; in the test on UACC-62 melanoma, 28.1 µM; in the test on NCI-H460 lung, 38.2 µM; in the test on U251 CNS it was 31.5 µM.

Take `COC1=C2CC(C)CC(OC)[C@@H](OC(=O)CCN)[C@H](C)/C=C(\C)C(OC(N)=O)C(OC)/C=C\C=C(/C)C(=O)NC(=CC1=O)C2=O` (stereo not given in full): the TGI in the test with SN12C renal turned out to be 14.2 µM; in the test on SR leukemia, 8.71 µM; in the test with SF-268 CNS it was 26.2 µM; in the test on UO-31 renal it was 16.3 µM; in the test on T-47D breast, 1.68 µM; in the test with NCI-H23 lung, 6.22 µM. Also, the TGI came out at 7.47 µM in the test with MDA-MB-231 breast; 30.1 µM in the test on SF-295 CNS; 14.5 µM in the test on RPMI-8226 leukemia; 31.2 µM with A498 renal; 12.3 µM in the test with HCT-116 colon; 2.53 µM in the test on MOLT-4 leukemia. Besides, the TGI in the test on EKVX NSCLC was 25 µM; in the test with UACC-62 melanoma it was 4.34 µM; in the test with NCI-H460 lung, 24.4 µM; in the test on U251 CNS it was 6.19 µM.

For the compound `CC(NC(=O)C(NC(=O)OC(C)(C)C)C(C)C)C(=O)N1CCCC1C(=O)NCC(=O)NC(C(=O)NCC(=O)O)C(C)C` (stereo not given) (Boc-VAPGVG-OH; configuration not given here), the TGI in the test with SN12C renal, with SR leukemia, in the test on SF-268 CNS, in the test with UO-31 renal, in the test with T-47D breast and with K-562 leukemia was above 100 µM throughout. For the same compound, the TGI in the test on NCI-H23 lung, in the test on MDA-MB-231 breast, in the test with SF-295 CNS, in the test on RPMI-8226 leukemia, with A498 renal and with HCT-116 colon was above 100 µM each time. The TGI in the test with MOLT-4 leukemia, with EKVX NSCLC, in the test with UACC-62 melanoma, in the test with NCI-H460 lung and in the test on U251 CNS was above 100 µM in each case.

For `CSc1c(C(=O)Nc2ccc(Cl)cc2)c(N)nn1-c1ccccc1`, the TGI in the test with SN12C renal, in the test on SR leukemia, with SF-268 CNS, in the test on UO-31 renal, in the test with T-47D breast and in the test with K-562 leukemia was above 100 µM throughout. In addition, the TGI in the test on NCI-H23 lung, with MDA-MB-231 breast, in the test on SF-295 CNS, in the test with RPMI-8226 leukemia, with A498 renal and with HCT-116 colon was above 100 µM in each case. Besides, the TGI in the test on MOLT-4 leukemia, in the test on EKVX NSCLC, in the test on UACC-62 melanoma, in the test with NCI-H460 lung and in the test with U251 CNS was above 100 µM each time.

For `CCOC(=O)c1cc2c(ccc3cc(C(=O)OCC)[nH]c32)[nH]1`, the TGI in the test with SN12C renal is 89.1 µM; in the test on SR leukemia, 45.3 µM; with SF-268 CNS, above 100 µM; with UO-31 renal it was above 100 µM; in the test with T-47D breast, above 100 µM; with K-562 leukemia, above 100 µM. The TGI in the test with NCI-H23 lung was above 100 µM; with MDA-MB-231 breast, 28.7 µM; in the test on SF-295 CNS, above 100 µM; in the test with RPMI-8226 leukemia, above 100 µM; in the test with A498 renal, above 100 µM; with HCT-116 colon, above 100 µM. Also, the TGI with MOLT-4 leukemia is above 100 µM; in the test on EKVX NSCLC, above 100 µM; in the test with UACC-62 melanoma, above 100 µM; with NCI-H460 lung, above 100 µM; with U251 CNS it was 19.1 µM.

With `CC(C)=CCC[C@@H](C)C1=C(O)C(Nc2ccccc2Br)=C(C)C(=O)C1=O`, the TGI was 28.2 µM with SN12C renal; 45 µM in the test on SR leukemia; above 50.4 µM with SF-268 CNS; 35.7 µM in the test with UO-31 renal; 66.4 µM with T-47D breast; above 69.9 µM with K-562 leukemia. The TGI is 31.2 µM in the test with NCI-H23 lung; 61.9 µM with MDA-MB-231 breast; 28.1 µM in the test with SF-295 CNS; above 58.6 µM with RPMI-8226 leukemia; 45.2 µM with A498 renal; 43.6 µM in the test with HCT-116 colon. The TGI with MOLT-4 leukemia is 25.5 µM; in the test on EKVX NSCLC, 48.3 µM; in the test on UACC-62 melanoma, 38.5 µM; in the test with NCI-H460 lung, above 64.8 µM; in the test with U251 CNS it was 99.5 µM.

On to `COc1ccccc1C1SCC(=O)N1c1ccc(-n2c(-c3ccccc3)nc3ccccc3c2=O)cc1` (stereo not given), for which the TGI in the test with SN12C renal, in the test with SR leukemia, with SF-268 CNS, in the test with UO-31 renal, with T-47D breast and in the test on K-562 leukemia was above 100 µM each time. Moreover, the TGI in the test on NCI-H23 lung, in the test on MDA-MB-231 breast, in the test with SF-295 CNS, in the test on RPMI-8226 leukemia, in the test on A498 renal and with HCT-116 colon was above 100 µM in each case. Further, the TGI in the test with MOLT-4 leukemia, in the test on EKVX NSCLC, with UACC-62 melanoma, with NCI-H460 lung and in the test with U251 CNS was above 100 µM throughout.

For the compound `COC(OC)C1OC(CO)C(n2cc(C)c(=O)[nH]c2=O)C1O` (stereo not given), the TGI in the test with SN12C renal, in the test on SR leukemia, in the test on SF-268 CNS, in the test with UO-31 renal, in the test on T-47D breast and in the test with K-562 leukemia was above 100 µM each time. Also, the TGI with NCI-H23 lung, with MDA-MB-231 breast, in the test with SF-295 CNS, in the test on RPMI-8226 leukemia, in the test with A498 renal and in the test with HCT-116 colon was above 100 µM each time. For the same compound, the TGI with MOLT-4 leukemia, with EKVX NSCLC, in the test on UACC-62 melanoma, with NCI-H460 lung and in the test on U251 CNS was above 100 µM throughout.
